pIC50: −log10 of the molar value.
These compounds were tested against T1, human PAD4 (Homo sapiens, UniProt Q9UM07) (assay: In vitro PAD4 BAEE biochemical assay). Settings: BAEE substrate 3 mM, 5 nM PAD4, 2 mM calcium chloride; geometric mean of multiple experiments.
T1 construct: human PAD4 (NM_012387), A2-P663, was PCR amplified; His-SUMO (N, cleaved yes); made in house; host or cells: E. coli BL21(DE3)
Summary of the method: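 PAD4 5 nM, CaCl2 2 mM, BAEE 3 mM final; 50 mM MOPS pH 7.6, 50 mM NaCl, 0.05% Tween-20, 2 mM DTT. Cpd + enzyme 30 min 25 °C; substrate 2 h 25 °C; EDTA stop; OPA detection 1 h. IC50 4-parameter fit.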

T1 sequence (Q9UM07 2-663): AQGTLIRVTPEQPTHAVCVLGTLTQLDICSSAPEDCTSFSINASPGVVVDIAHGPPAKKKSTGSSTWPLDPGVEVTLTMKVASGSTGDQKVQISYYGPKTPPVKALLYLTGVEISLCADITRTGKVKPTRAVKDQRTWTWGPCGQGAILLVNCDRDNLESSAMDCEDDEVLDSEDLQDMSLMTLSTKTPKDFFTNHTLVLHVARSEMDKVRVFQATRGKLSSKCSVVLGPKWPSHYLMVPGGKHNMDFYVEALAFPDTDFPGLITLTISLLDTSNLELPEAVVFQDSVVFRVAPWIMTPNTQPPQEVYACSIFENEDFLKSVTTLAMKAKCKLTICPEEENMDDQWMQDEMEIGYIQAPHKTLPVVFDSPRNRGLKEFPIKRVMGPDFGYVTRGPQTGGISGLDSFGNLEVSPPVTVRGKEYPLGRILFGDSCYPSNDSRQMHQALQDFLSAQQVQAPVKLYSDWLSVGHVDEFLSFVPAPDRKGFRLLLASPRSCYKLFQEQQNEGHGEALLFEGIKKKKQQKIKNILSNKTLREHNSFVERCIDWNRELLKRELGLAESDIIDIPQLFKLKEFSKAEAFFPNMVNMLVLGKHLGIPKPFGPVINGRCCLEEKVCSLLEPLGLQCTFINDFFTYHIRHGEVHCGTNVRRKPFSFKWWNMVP

| SMILES | pIC50 |
| --- | --- |
| COc1cc(C(=O)N[C@H]2CNCC[C@H]2O)cc2nc(-c3cc4ccc5nc4n3CCCCCCC(C)(C)C(=O)N[C@@H]5C)n(C)c12 [Example 295, ~{N}-[(3~{S},4~{R})-4-hydroxy-3-piperidyl]-7-methoxy-1-methyl-2-[(11~{R})-8,8,11-trimethyl-9-oxo-1,10,19-triazatricyclo[10.5.2.0^{15,18}]nonadeca-12(19),13,15(18),16-tetraen-17-yl]benzimidazole-5-carboxamide] | 5.48 |
| COc1cc(C(=O)N2CC[C@@H](OCC(F)F)[C@@H](N)C2)cc2nc(-c3cc4ccc5nc4n3CCCCCCC(C)(C)C(=O)N[C@@H]5C)n(C)c12 [Example 14, (11~{R})-17-[5-[(3~{S),4~{R})-3-amino-4-(2,2-difluoroethoxy)piperidine-1-carbonyl]-7-methoxy-1-methyl-benzimidazol-2-yl]-8,8,11-trimethyl-1,10,19-triazatricyclo[10.5.2.0^{15,18}]nonadeca-12(19),13,15(18),16-tetraen-9-one] | 6.92 |
| COc1cc(C(=O)N[C@H]2CNCC[C@@H]2F)cc2nc(-c3cc4ccc5nc4n3CCCCC[C@H]3C[C@]3(C)C(=O)N[C@@H]5C)n(C)c12 [Example 187, 2-[(2~{R},5~{S},7~{S})-2,5-dimethyl-4-oxo-3,13,19-triazatetracyclo[11.5.2.0^{5,7}.0^{16,20}]icosa-1(19),14,16(20),17-tetraen-14-yl]-~ {N}-[(3~{S},4~{S})-4-fluoro-3-piperidyl]-7-methoxy-1-methyl-benzimidazole-5-carboxamide] | 6.96 |
| COc1cc(C(=O)N2CC[C@@H](C(F)(F)F)[C@@H](N)C2)cc2nc(-c3cc4ccc5nc4n3CCCCCCC(C)(C)C(=O)N[C@@H]5C)n(C)c12 [Example 192, (11~{R})-17-[5-[(3~{R},4~{R})-3-amino-4-(trifluoromethyl)piperidine-1-carbonyl]-7-methoxy-1-methyl-benzimidazol-2-yl]-8,8,11-trimethyl-1,10,19-triazatricyclo[10.5.2.0^{15,18}]nonadeca-12(19),13,15(18),16-tetraen-9-one] | 5.17 |
| C[C@H]1NC(=O)c2ccccc2CC[C@@H]2C[C@H]2Cn2c(-c3nc4cc(C(=O)N[C@H]5CNCC[C@@H]5F)c(F)cc4n3C3CC3)cc3ccc1nc32 [Example 348, 1-cyclopropyl-6-fluoro-~{N}-[(3~{S},4~{S})-4-fluoro-3-piperidyl]-2-[(3~{R},5~{R},16~{R})-16-methyl-14-oxo-1,15,24-triazapentacyclo[15.5.2.0^{3,5}.0^{8,13}.0^ {20,23}]tetracosa-8,10,12,17(24),18,20(23),21-heptaen-22-yl]benzimidazole-5-carboxamide] | 7.18 |
| COc1cc(C(=O)N2C[C@H](N)[C@@H]3CC[C@H]2C3)cc2nc(-c3cc4ccc5nc4n3CCCCC[C@@H]3C[C@@]3(F)C(=O)N[C@@H]5C)n(C)c12 [Example 447, (2~{R},5~{S},7~{R})-14-[5-[(1~{S},4~{R},5~{R})-4-amino-2-azabicyclo[3.2.1]octane-2-carbonyl]-7-methoxy-1-methyl-benzimidazol-2-yl]-5-fluoro-2-methyl-3,13,19-triazatetracyclo[11.5.2.0^{5,7}.0^{16,20}] icosa-1(19),14,16(20),17-tetraen-4-one] | 7.43 |
| COc1cc(C(=O)N2[C@H]3CC[C@@H]2[C@H](N)C3)cc2nc(-c3cc4ccc5nc4n3C/C=C\CCCCS(=O)(=O)N[C@@H]5C)n(C)c12 [Example 23, [(1˜{R},2˜{R},4˜{S})-2-amino-7-azabicyclo[2.2.1]heptan-7-yl]-[7-methoxy-1-methyl-2-[(11˜{R})-11-methyl-9,9-dioxo-9$1^6-thia-1,10,19-triazatricyclo[10.5.2.0^{15,18}]nonadeca-3,12(19),13,15(18),16-pentaen-17-yl]benzimidazol-5-yl]methanone] | 7.40 |
| COc1cc(C(=O)N2CCC[C@@H](N)C2)cc2nc(-c3cc4ccc5nc4n3C[C@H]3C[C@H]3CCCCC(=O)N[C@@H]5C)n(C)c12 [Example 118, (3~{S},5~{R},12~{R})-18-[5-[(3~{R})-3-aminopiperidine-1-carbonyl]-7-methoxy-1-methyl-benzimidazol-2-yl]-12-methyl-1,11,20-triazatetracyclo[11.5.2.0^{3,5}.0^{16,19}] icosa-13(20),14,16(19),17-tetraen-10-one] | 7.39 |
| C[C@H]1NC(=O)[C@@H]2C[C@H]2CC[C@@H]2[C@H](Cn3c(-c4nc5cc(C(=O)N[C@H]6CNCC[C@@H]6F)c(F)cc5n4C)cc4ccc1nc43)C2(F)F [Example 386, 2-[(3~{R},5~{R},8~{R},10~{R},13~{R})-4,4-difluoro-13-methyl-11-oxo-1,12,21-triazapentacyclo[12.5.2.0^{3,5}.0^{8,10}.0^ {17,20}]henicosa-14(21),15,17(20),18-tetraen-19-yl]-6-fluoro-~{N}-[(3~{S},4~{S})-4-fluoro-3-piperidyl]-1-methyl-benzimidazole-5-carboxamide] | 7.62 |
| COc1cc(C(=O)N2[C@H]3CC[C@@H]2[C@H](N)C3)cc2nc(-c3cc4ccc5nc4n3CCCCCC[C@H](C)C(=O)N[C@@H]5C)c(C)n12 [Example 124, (8~{S},11~{R})-17-[7-[(1~{R},2~{R},4~{S})-2-amino-7-azabicyclo[2.2.1]heptane-7-carbonyl]-5-methoxy-3-methyl-imidazo[1,2-a]pyridin-2-yl]-8,11-dimethyl-1,10,19-triazatricyclo[10.5.2.0^{15,18}]nonadeca-12(19),13,15(18),16-tetraen-9-one] | 7.92 |
| C[C@H]1NC(=O)[C@@H]2C[C@H]2CCCCCn2c(-c3nc4cc(C(=O)N[C@H]5CNCC[C@@H]5F)c(F)cc4n3C3C[C@@H]3C(F)F)cc3ccc1nc32 (single isomer, unassigned) [Example 410, 1-[(1~{R},2~{S})-2-(difluoromethyl)cyclopropyl]-6-fluoro-~ {N}-[(3~{S},4~{S})-4-fluoro-3-piperidyl]-2-[(2~{R},5~{R},7~{R})-2-methyl-4-oxo-3,13,19-triazatetracyclo[11.5.2.0^{5,7}.0^{16,20}]icosa-1(19),14,16(20),17-tetraen-14-yl]benzimidazole-5-carboxamide] | 7.29 |

Further lines, results first:

| pIC50 | SMILES |
| --- | --- |
| 7.27 | CO[C@@H]1CCN(C(=O)c2ccc3c(c2)nc(-c2cc4ccc5nc4n2CC(F)(F)CCC[C@@H]2C[C@H]2C(=O)N[C@@H]5C)n3C2CC2)C[C@@H]1N [Example 690, (2~{R},5~{R},7~{R})-14-[5-[(3~{S},4~{R})-3-amino-4-methoxy-piperidine-1-carbonyl]-1-cyclopropyl-benzimidazol-2-yl]-11,11-difluoro-2-methyl-3,13,19-triazatetracyclo [11.5.2.0^{5,7}.0^{16,20}] icosa-1(19),14,16(20), 17-tetraen-4-one] |
| 7.11 | COc1cc(C(=O)N2CC[C@@H](OCC(F)F)[C@@H](N)C2)cc2nc(-c3cc4ccc5nc4n3CCCCC[C@@H]3C[C@H]3C(=O)N[C@@H]5C)n(C)c12 [Example 489, (2~{R},5~{R}, 7~{R})-14-[5-[(3~{S},4~{R})-3-amino-4-(2,2-difluoroethoxy)piperidine-1-carbonyl]-7-methoxy-1-methyl-benzimidazol-2-yl]-2-methyl-3,13,19-triazatetracyclo [11.5.2.0^{5,7}.0^{16,20}] icosa-1(19),14,16(20), 17-tetraen-4-one] |
| 6.57 | C[C@H]1NC(=O)C(C)(C)CCCCCCn2c(-c3nc4cc(C(=O)N[C@H]5CNCC[C@@H]5F)cc(Cl)c4n3C)cc3ccc1nc32 [Example 501, 7-chloro-~{N}-[(3~ {S},4~{S})-4-fluoro-3-piperidyl]-1-methyl-2-[(11~{R})-8,8,11-trimethyl-9-oxo-1,10,19-triazatricyclo[10.5.2.0^{15,18}]nonadeca-12(19),13,15(18), 16-tetraen-17-yl] benzimidazole-5-carboxamide] |
| 7.40 | C[C@H]1NC(=O)c2ccc(Cl)nc2CCCCCn2c(-c3nc4cc(C(=O)N5C[C@H](N)[C@@H]6CC[C@H]5C6)cc(OC(F)(F)F)c4n3C)cc3ccc1nc32 [Example 714, (2~{R})-17-[5-[(1~{S},4~{R}, 5~{R})-4-amino-2-azabicyclo [3.2.1]octane-2-carbonyl]-1-methyl-7-(trifluoromethoxy)benzimidazol-2-yl]-8-chloro-2-methyl-3,9,16,22-tetrazatetracyclo[14.5.2.0^ {5,10).0^{19,23}]tricosa-1(22), 5(10),6,8,17,19(23),20-heptaen-4-one] |
| 7.19 | C[C@H]1NC(=O)C(C)(C)CCCCCCn2c(-c3nc4cc(C(=O)N5[C@H]6CC[C@@H]5[C@H](N)C6)c(F)cc4n3C3CC3)cc3ccc1nc32 [Example 488, (11~{R})-17-[5-[(1~ {R},2~{R},4~{S})-2-amino-7-azabicyclo [2.2.1]heptane-7-carbonyl]-1-cyclopropyl-6-fluoro-benzimidazol-2-yl]-8,8,11-trimethyl-1,10,19-triazatricyclo [10.5.2.0^{15,18}]nonadeca-12(19),13,15(18),16-tetraen-9-one] |
| 7.03 | COc1cc(C(=O)N2CC[C@@H](OC)[C@@H](N)C2)cc2nc(-c3cc4ccc5nc4n3CCCCCc3nn(C)nc3C(=O)N[C@@H]5C)n(C)c12 [Example 570, (2~{R})-16-[5-[(3~{S}, 4~{R})-3-amino-4-methoxy-piperidine-1-carbonyl]-7-methoxy-1-methyl-benzimidazol-2-yl]-2,7-dimethyl-3,6,7,8,15,21-hexazatetracyclo[13.5.2.0^ {5,9}.0^{18,22}] docosa-1(21),5,8,16,18(22), 19-hexaen-4-one] |
| 7.48 | C[C@H]1NC(=O)c2ccc(Cl)nc2CCCCCn2c(-c3nc4cc(C(=O)N5CC[C@H]6CC[C@@H]5[C@@H]6N)cc(F)c4n3C3CC3)cc3ccc1nc32 [Example 774, (2~{R})-17-[5-[(1~{R},5~{R}, 8~{R})-8-amino-2-azabicyclo [3.2.1]octane-2-carbonyl]-1-cyclopropyl-7-fluoro-benzimidazol-2-yl]-8-chloro-2-methyl-3,9,16,22-tetrazatetracyclo[14.5.2.0^ {5,10).0^{19,23}]tricosa-1(22),5(10),6,8,17,19(23),20-heptaen-4-one] |
